Results: patent US20080064689A1, “3-[4-(6-Pyridin-3-Yl)-3-Phenyl] -5-(1H-1,2,3-Triazol-1-Ylmethyl)-1,3-Oxazolidin-2-Ones as Antibacterial Agents” (AstraZeneca AB, priority 2004, published 2008)
Converted amounts (≈) assume the structure as drawn. One block for each compound: values may come before it.

Tests used:
[1] = test system: Linezolid Resistant Streptococcus pneumoniae; test: MIC, agar dilution, Linezolid Resistant Streptococcus pneumoniae; type: cell-based; conditions: agar with 5% defibrinated horse blood, 10^4 CFU/spot, 37° C., 5% carbon dioxide, 48 hours
Experimental: (§1) The following results were obtained on a standard in-vitro test system. The activity is described in terms of the minimum inhibitory concentration (MIC) determined by the agar-dilution technique with an inoculum size of 10^4 CFU/spot. Typically, compounds are active in the range 0.01 to 256 μg/ml.
(§2) Streptococci and enterococci were tested on agar supplemented with 5% defibrinated horse blood, an inoculum of 10^4 CFU/spot and an incubation temperature of 37° C. in an atmosphere of 5% carbon dioxide for 48 hours—blood is required for the growth of some of the test organisms. Fastidious Gram negative organisms were tested in Mueller-Hinton broth, supplemented with hemin and NAD, grown aerobically for 24 hours at 37° C., and with an innoculum of 5×10^4 CFU/well.

[2] = test system: Moraxella catarrhalis; test: MIC, Moraxella catarrhalis (fastidious Gram negative, broth); type: cell-based; conditions: Mueller-Hinton broth with hemin and NAD, 24 hours at 37° C., 5×10^4 CFU/well
Experimental: as §1, §2

[3] = test system: Staphylococcus aureus MSQS (methicillin sensitive and quinolone sensitive); test: MIC, agar dilution, Staphylococcus aureus MSQS; type: cell-based; conditions: inoculum 10^4 CFU/spot, 37° C., 24 hours
Experimental: as §1
(§3) Staphylococci were tested on agar, using an inoculum of 10^4 CFU/spot and an incubation temperature of 37° C. for 24 hours—standard test conditions for the expression of methicillin resistance.

[4] = target: T1, MAO-A (Homo sapiens, UniProt P21397); test: MAO-A inhibition, standard in-vitro assay, human liver enzyme expressed in yeast; type: biochemical; conditions: read-out: Ki value against MAO-A
T1 construct: made in house; host or cells: yeast
T1 sequence (P21397 1-527): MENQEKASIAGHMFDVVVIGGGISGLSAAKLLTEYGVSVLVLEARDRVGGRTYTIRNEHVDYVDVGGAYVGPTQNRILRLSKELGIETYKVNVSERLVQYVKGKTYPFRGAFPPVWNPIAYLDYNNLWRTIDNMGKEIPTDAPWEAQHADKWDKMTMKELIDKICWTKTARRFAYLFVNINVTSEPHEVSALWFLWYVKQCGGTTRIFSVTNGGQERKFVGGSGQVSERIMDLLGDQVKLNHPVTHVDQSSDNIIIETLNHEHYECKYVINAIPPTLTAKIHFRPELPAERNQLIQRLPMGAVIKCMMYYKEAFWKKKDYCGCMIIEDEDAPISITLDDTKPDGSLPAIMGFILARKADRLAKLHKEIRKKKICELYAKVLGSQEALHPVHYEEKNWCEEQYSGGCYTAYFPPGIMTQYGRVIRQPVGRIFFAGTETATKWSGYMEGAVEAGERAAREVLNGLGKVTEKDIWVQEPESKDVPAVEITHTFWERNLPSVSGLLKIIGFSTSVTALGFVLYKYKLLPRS
Experimental: The activity of the compounds of the invention against MAO-A was tested using a standard in-vitro assay based on human liver enzyme expressed in yeast as described in Biochem. Biophys. Res. Commun. 1991, 181, 1084-1088.

[5] = test system: Staphylococcus aureus MRQR (methicillin resistant and quinolone resistant); test: MIC, agar dilution, Staphylococcus aureus MRQR; type: cell-based; conditions: inoculum 10^4 CFU/spot, 37° C., 24 hours
Experimental: as §1, §3

[6] = test system: Streptococcus pneumoniae; test: MIC, agar dilution, Streptococcus pneumoniae; type: cell-based; conditions: agar with 5% defibrinated horse blood, 10^4 CFU/spot, 37° C., 5% carbon dioxide, 48 hours
Experimental: as §1, §2

[7] = test system: Haemophilus influenzae; test: MIC, Haemophilus influenzae (fastidious Gram negative, broth); type: cell-based; conditions: Mueller-Hinton broth with hemin and NAD, 24 hours at 37° C., 5×10^4 CFU/well
Experimental: as §1, §2

SMILES: CN(CC(=O)O)CC(=O)N(C)C[C@@H]1CC(c2ccc(-c3ccc(N4C[C@H](Cn5ccnn5)OC4=O)cc3F)cn2)=NO1 [Example 24, N-{2-[{[(5S)-3-(5-{2-Fluoro-4-[(5R)-2-oxo-5-(1H-1,2,3-triazol-1-ylmethyl)-1,3-oxazolidin-3-yl]phenyl}pyridin-2-yl)-4,5-dihydroisoxazol-5-yl]methyl}(methyl)amino]-2-oxoethyl}-N-methylglycine]
melting point: 135 to 145 °C

SMILES: O=C(O)CNCC(=O)NC[C@@H]1CC(c2ccc(-c3ccc(N4C[C@H](Cn5ccnn5)OC4=O)cc3F)cn2)=NO1 [Example 25, N-[2-({[(5S)-3-(5-{2-Fluoro-4-[(5R)-2-oxo-5-(1H-1,2,3-triazol-1-ylmethyl)-1,3-oxazolidin-3-yl]phenyl}pyridin-2-yl)-4,5-dihydroisoxazol-5-yl]methyl}amino)-2-oxoethyl]glycine]
melting point: 200 to 210 °C

SMILES: CN(CC(=O)O)CC(=O)NC[C@@H]1CC(c2ccc(-c3ccc(N4C[C@H](Cn5ccnn5)OC4=O)cc3F)cn2)=NO1 [Example 27, N-[2-({[(5S)-3-(5-{2-Fluoro-4-[(5R)-2-oxo-5-(1H-1,2,3-triazol-1-ylmethyl)-1,3-oxazolidin-3-yl]phenyl}pyridin-2-yl)-4,5-dihydroisoxazol-5-yl]methyl}amino)-2-oxoethyl]-N-methylglycine]
melting point: 185 to 188 °C

Next, values leading:

MIC [1]: 1 µg/mL (≈ 1.97 µM) | MIC [2]: 1 µg/mL (≈ 1.97 µM) | MIC [3]: 0.5 µg/mL (≈ 0.985 µM) | melting point: 230 °C | Ki [4]: > 22000 nM | MIC [5]: 0.5 µg/mL (≈ 0.985 µM) | MIC [6]: 0.13 µg/mL (≈ 0.256 µM) | MIC [7]: 8 µg/mL (≈ 15.8 µM)
SMILES: O=C1O[C@@H](Cn2ccnn2)CN1c1ccc(-c2ccc(C3=NO[C@H](CN4CCOCC4)C3)nc2)c(F)c1 [Example 3, (5R)-3-(3-Fluoro-4-{6-[(5S)-5-(morpholin-4-ylmethyl)-4,5-dihydroisoxazol-3-yl]pyridin-3-yl}phenyl)-5-(1H-1,2,3-triazol-1-ylmethyl)-1,3-oxazolidin-2-one]

melting point: 239 to 242 °C
SMILES: O=C1O[C@@H](Cn2ccnn2)CN1c1ccc(-c2ccc(C3=NO[C@H](Cn4ccnc4)C3)nc2)c(F)c1 [Example 26, (5R)-3-(3-Fluoro-4-{6-[(5S)-5-(1H-imidazol-1-ylmethyl)-4,5-dihydroisoxazol-3-yl]pyridin-3-yl}phenyl)-5-(1H-1,2,3-triazol-1-ylmethyl)-1,3-oxazolidin-2-one]

melting point: 224 to 226 °C
SMILES: N[C@@H](CC(=O)O)C(=O)NC[C@@H]1CC(c2ccc(-c3ccc(N4C[C@H](Cn5ccnn5)OC4=O)cc3F)cn2)=NO1 [Example 28, N^1-{[(5S)-3-(5-{2-Fluoro-4-[(5R)-2-oxo-5-(1H-1,2,3-triazol-1-ylmethyl)-1,3-oxazolidin-3-yl]phenyl}pyridin-2-yl)-4,5-dihydroisoxazol-5-yl]methyl}-L-α-asparagine]

melting point: 119 to 122 °C | Ki [4]: 350 nM
SMILES: NC[C@@H]1CC(c2ccc(-c3ccc(N4C[C@H](Cn5ccnn5)OC4=O)cc3F)cn2)=NO1 [Reference Example 16, (5R)-3-(4-{6-[(5S)-5-(Aminomethyl)-4,5-dihydroisoxazol-3-yl]pyridin-3-yl}-3-fluorophenyl)-5-(1H-1,2,3-triazol-1-ylmethyl)-1,3-oxazolidin-2-one]
